Data taken from patent US20030134865A1, “Modulation of histone deacetylase” (priority 2003, published 2003).

What was measured:
HDAC activity [1] = assay: Direct effect on HDAC activity of nuclear proteins from untreated A549 cells; assay type: biochemical
Procedure: FIG. 13. […] (a) Direct effect of the PDE4 inhibitor rolipram (10 μM) and the adenosine receptor antagonist CGS-15943 (10 μM) on HDAC activity. […] (b) Direct effect of the MEK inhibitor PD089159 (1 μM) and the p38 MAPK inhibitor SB203580 on theophylline induced HDAC activity.

HDAC1 [2] = assay: HDAC1 expression in A549 cells (Western blot); assay type: cell-based
Procedure: (§1) FIG. 12. Effect of theophylline on HDAC expression. […]. Band densities were controlled for protein loading by comparison with β-actin expression. Results are shown as relative band densities.
(§2) Western blotting: Immunoprecipitates, whole cell extractions or isolated histones were measured by SDS-PAGE and Western blot analysis using ECL (Amersham, Amersham, UK). Proteins were size-fractionated by SDS-PAGE and transferred to Hybond-ECL membranes. Specific protein bands were detected by ECL according to the manufacturer's instructions.

HDAC2 [3] = assay: HDAC2 expression in A549 cells (Western blot); assay type: cell-based; settings: for HDAC2 expression: A549 cells
Excerpt: […]. Proteins were extracted and size fractionated by SDS-PAGE and HDAC2 detected by Western blotting. Densitometric analysis of HDAC2 expression is shown graphically in the lower panel. Data from 3 separate experiments was normalised to β-actin and results expressed as mean±SEM. *p<0.05.
as §1
Immunoprecipitates, whole cell extractions or isolated histones were measured by SDS-PAGE and Western blot analysis using ECL (Amersham, Amersham, UK). Proteins were size-fractionated by SDS-PAGE and transferred to Hybond-ECL membranes. Immunoreactive bands were detected by ECL.
as §2

HDAC1 [4] = assay: HDAC1 expression in bronchial biopsies of treated asthmatics (Western blot); assay type: in vivo, human; settings: placebo 0.28±0.09, p<0.05
Excerpt: (§3) FIG. 16. Effect of theophylline on HDAC expression and activity in vivo. (a) Western blot analysis of HDAC1 and HDAC 2 expression in bronchial biopsies from mild asthmatic subjects treated with low dose theophylline (LDT) or placebo. (b) Graphical expression of the effect of LDT and placebo on HDAC1 and HDAC2 expression relative to β-actin. (c) Effect of LDT and P on HDAC activity in bronchial biopsies. N=14.
as §2

HDAC2 [5] = assay: HDAC2 expression in bronchial biopsies of treated asthmatics (Western blot); assay type: in vivo, human; settings: placebo 0.28±0.08, p=0.1
Excerpt: as §3, §2

HDAC activity [6] = assay: Total HDAC activity in bronchial biopsies of treated asthmatics; assay type: in vivo, human; settings: placebo 67±12, p<0.05
Excerpt: as §3

[7] = tested on: HDAC activity, BAL macrophages; assay: HDAC activity in BAL macrophages; assay type: cell-based, human; settings: 24 hours
[8] = tested on: IL-8 release, alveolar macrophages; assay: LPS-induced IL-8 release from alveolar macrophages; assay type: cell-based, human; settings: macrophages from non-smokers
HDAC1 [9] = biological target: T1, HDAC1 (Homo sapiens, UniProt Q13547); assay: Immunoprecipitated HDAC1 activity; assay type: cell-based; settings: theophylline 10^−5 M
T1 construct: endogenous in cells
Excerpt: (§4) FIG. 22. Effect of theophylline on HDAC1, HDAC2 and HDAC3 activity.
(§5) Using IP-HAT assays we were able to determine which HDACs were the target for theophylline action.

HDAC2 [10] = biological target: T2, HDAC2 (Homo sapiens, UniProt Q92769); assay: Immunoprecipitated HDAC2 activity; assay type: cell-based; settings: theophylline 10^−5 M
T2 construct: endogenous in cells
Excerpt: as §4, §5

HDAC3 = biological target: T3, HDAC3 (Homo sapiens, UniProt O15379); assay: Immunoprecipitated HDAC3 activity; assay type: cell-based; settings: theophylline 10^−5 M
T3 construct: endogenous in cells
Excerpt: as §4, §5

[11] = tested on: histone acetyltransferase (HAT) activity, A549 cells
Procedure: (a) Cells were stimulated with LPS (3 ng/ml) for 24 hours in the presence or absence of theophylline (10^−5 M) or Dex (10^−6 M). Total cellular proteins were extracted and histone acetylase activity measured. (b) GM-CSF release into the culture medium was measured after 6 hours by ELISA.
After incubation for 10 min at 37° C. cells were stimulated for 6 hr. Histones were isolated and separated by electrophoresis on SDS-16% polyacrylamide gel. Gels were stained with Coommasie brilliant blue and the core histones (H2A, H2B, H3 and H4) excised. The radioactivity in extracted core histones was determined by liquid scintillation counting and normalised to protein level.

[12] = tested on: GM-CSF release, A549 cells; assay: GM-CSF release from A549 cells (ELISA)
Procedure: Determination of GM-CSF expression was measured by sandwich ELISA (Pharmingen, Lugano, Switzerland) according to the manufacturer's instructions.
GM-CSF ELISA: Determination of GM-CSF expression was measured by sandwich ELISA (Pharmingen, Lugano, Switzerland) according to the manufacturer's instructions.

[13] = tested on: HDAC activity, alveolar macrophages; assay: HDAC activity in alveolar macrophages from non-smokers or smokers; settings: theophylline 10^−5 M, dexamethasone 10^−10 M
[14] = tested on: histone deacetylase (HDAC) activity, A549 cells; assay: Histone deacetylation activity in total cellular extracts of treated A549 cells
Procedure: (B) Effect of Trichostatin A (TSA) on histone deacetylase activity and histone H4 acetylation. Cells were treated with increasing concentrations of TSA for 6 hrs before total cellular proteins were isolated and analysed for deacetylase activity and also histone acetylation by Western blotting using an anti-pan acetylated histone H4 antibody.
Effect of theophylline on histone deacetylase (HDAC) activity in A549 cells. (a) Cells were stimulated with LPS (3 ng/ml) for 24 hours in the presence or absence of theophylline (10^−5 M) or Dex (10^−6 M). Total cellular proteins were extracted and histone deacetylase activity measured. (b) Direct effect of theophylline on HDAC activity. […] Results are expressed as mean±SEM (n=3-5, *p<0.05, **p<0.01).

[15] = Double-blind cross-over study of low dose theophylline in mild stable asthmatic subjects; settings: 5 weeks low dose theophylline
Excerpt: Patients: Fifteen mild stable asthmatic subjects (Table 1) receiving treatment with only the inhaled β2-adrenergic agonist aerosol, albuterol, for intermittent relief of wheeze were recruited. […] All patients were atopic as defined by two or more positive skin prick tests to common allergens. […] Current smokers or ex-smokers of more than five pack years and patients with FEV1 less than 80% predicted were excluded.
Fibreoptic bronchoscopy and isolation of BAL macrophages: Subjects attended our bronchoscopy suite at 8.30 am after having fasted from midnight and were pretreated with atropine (0.6 mg iv) and midazolam (5-10 mg iv). Oxygen (31/min) was administered via nasal prongs throughout the procedure and oxygen saturation was monitored with a digital oximeter. Using local anaesthesia with lidocaine (4%) to the upper airways and larynx, a fibreoptic bronchoscope (Olympus BF10) was passed through the nasal passages into the trachea. Bronchoalveolar lavage (BAL) was performed from the right middle lobe using warmed 0.9% NaCl with 4 successive aliquots of 60 mls of 0.9% NaCl. […] Cytospins were prepared and stained with May-Grunwald stain for differential cell counts. Cell viability was assessed using trypan blue exclusion.

[16] = theophylline 10^−5 M, dexamethasone 10^−10 M

T2 sequence (Q92769 whole entry): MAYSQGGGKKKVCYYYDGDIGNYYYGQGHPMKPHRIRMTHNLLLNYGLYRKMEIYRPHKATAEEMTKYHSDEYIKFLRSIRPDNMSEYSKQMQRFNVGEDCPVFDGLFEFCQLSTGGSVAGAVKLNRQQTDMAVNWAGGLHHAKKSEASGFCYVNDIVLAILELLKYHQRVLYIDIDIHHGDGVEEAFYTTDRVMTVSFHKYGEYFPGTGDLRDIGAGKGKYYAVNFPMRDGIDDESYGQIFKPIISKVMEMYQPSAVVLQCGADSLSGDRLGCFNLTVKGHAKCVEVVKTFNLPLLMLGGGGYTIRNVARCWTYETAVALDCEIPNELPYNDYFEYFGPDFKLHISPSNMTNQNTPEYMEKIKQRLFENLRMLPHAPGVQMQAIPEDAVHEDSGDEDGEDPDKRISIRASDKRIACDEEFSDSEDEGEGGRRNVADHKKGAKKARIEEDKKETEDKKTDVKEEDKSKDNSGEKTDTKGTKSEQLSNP
T1 sequence (Q13547 whole entry): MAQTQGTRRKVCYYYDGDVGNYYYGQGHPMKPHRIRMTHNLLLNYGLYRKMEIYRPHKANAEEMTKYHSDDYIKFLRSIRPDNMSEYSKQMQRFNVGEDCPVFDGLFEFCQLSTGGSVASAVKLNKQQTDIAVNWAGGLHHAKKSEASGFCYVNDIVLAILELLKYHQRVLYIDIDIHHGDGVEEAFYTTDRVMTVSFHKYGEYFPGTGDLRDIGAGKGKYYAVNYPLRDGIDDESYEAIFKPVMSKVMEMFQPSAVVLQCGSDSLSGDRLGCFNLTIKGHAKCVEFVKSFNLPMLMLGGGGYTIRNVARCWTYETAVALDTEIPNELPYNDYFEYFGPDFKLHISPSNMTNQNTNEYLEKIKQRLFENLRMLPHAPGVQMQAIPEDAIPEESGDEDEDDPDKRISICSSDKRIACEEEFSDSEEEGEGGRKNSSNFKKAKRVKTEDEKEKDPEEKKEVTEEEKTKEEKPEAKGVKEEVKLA
T3 sequence (O15379 whole entry): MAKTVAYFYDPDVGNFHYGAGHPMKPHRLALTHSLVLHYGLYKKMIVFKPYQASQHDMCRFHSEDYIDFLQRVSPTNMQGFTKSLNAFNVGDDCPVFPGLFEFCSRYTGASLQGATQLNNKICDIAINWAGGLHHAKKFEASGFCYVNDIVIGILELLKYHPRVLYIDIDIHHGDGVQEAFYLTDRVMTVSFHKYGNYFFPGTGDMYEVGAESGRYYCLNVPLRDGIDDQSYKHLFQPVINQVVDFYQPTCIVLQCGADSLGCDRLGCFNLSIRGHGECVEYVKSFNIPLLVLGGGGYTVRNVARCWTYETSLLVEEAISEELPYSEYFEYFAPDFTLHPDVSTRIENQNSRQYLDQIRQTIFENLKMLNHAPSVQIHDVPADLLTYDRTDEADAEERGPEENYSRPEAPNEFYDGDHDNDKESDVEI
T3 sequence (Q9Y618 whole entry partner): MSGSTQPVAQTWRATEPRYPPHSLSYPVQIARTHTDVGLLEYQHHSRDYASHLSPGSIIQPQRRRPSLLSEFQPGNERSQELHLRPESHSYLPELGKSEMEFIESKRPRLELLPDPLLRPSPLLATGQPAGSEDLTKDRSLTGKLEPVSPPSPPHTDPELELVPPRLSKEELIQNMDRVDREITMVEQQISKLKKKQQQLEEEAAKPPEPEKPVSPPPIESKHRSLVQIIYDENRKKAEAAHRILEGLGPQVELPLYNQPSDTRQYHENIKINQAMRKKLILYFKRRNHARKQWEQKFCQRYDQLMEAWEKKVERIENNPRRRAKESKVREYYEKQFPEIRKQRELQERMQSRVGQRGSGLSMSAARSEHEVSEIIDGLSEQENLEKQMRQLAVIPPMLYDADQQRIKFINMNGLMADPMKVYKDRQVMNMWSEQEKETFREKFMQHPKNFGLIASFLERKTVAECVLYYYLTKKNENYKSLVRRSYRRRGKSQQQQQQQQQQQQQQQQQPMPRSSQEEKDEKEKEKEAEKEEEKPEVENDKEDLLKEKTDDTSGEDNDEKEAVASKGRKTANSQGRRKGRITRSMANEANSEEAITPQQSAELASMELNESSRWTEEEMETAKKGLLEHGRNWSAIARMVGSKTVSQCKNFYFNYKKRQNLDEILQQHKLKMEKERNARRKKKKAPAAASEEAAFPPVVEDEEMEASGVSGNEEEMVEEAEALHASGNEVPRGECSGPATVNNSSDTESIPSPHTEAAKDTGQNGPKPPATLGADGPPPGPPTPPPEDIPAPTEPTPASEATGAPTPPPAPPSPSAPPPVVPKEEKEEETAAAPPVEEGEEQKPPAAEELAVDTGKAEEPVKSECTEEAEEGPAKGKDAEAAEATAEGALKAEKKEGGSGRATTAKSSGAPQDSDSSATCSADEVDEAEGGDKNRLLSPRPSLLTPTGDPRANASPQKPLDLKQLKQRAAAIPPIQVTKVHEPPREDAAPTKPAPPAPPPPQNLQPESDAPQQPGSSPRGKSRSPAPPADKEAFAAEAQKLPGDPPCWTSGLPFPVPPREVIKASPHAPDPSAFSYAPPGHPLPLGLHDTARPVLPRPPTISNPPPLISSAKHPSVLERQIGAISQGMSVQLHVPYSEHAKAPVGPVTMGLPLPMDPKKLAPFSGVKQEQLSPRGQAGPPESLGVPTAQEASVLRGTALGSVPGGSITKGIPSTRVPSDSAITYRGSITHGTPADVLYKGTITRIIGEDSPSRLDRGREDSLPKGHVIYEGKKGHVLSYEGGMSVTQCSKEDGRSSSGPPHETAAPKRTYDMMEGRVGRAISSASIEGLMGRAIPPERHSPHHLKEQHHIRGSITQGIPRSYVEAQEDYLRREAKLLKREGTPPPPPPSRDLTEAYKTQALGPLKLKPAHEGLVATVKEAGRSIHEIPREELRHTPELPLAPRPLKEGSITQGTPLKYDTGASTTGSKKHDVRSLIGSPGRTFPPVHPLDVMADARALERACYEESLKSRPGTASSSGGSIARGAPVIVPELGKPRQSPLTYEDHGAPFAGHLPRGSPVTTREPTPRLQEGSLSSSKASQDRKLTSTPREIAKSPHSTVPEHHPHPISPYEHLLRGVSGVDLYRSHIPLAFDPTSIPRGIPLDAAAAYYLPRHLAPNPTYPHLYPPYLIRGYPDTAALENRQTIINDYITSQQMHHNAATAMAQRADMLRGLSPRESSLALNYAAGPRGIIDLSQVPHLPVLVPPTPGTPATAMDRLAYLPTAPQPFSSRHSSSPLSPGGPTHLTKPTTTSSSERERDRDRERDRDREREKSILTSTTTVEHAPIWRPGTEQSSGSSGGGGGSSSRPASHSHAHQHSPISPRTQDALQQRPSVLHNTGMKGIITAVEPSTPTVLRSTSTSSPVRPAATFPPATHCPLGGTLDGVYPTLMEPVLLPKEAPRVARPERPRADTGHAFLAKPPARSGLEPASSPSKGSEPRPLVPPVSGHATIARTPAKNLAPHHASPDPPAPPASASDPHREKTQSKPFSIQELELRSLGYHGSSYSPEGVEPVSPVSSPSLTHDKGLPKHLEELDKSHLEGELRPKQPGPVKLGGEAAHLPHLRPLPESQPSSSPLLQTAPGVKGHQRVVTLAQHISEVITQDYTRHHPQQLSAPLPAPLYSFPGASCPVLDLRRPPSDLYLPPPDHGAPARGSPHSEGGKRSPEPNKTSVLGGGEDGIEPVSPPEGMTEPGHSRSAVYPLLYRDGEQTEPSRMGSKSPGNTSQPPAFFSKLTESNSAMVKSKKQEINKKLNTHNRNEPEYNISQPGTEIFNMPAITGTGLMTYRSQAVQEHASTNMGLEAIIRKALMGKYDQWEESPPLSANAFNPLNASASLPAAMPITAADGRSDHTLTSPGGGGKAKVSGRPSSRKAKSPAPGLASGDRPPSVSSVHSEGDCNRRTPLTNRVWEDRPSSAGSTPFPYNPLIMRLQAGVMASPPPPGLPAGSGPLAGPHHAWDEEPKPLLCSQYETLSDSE

With Cn1c(=O)c2[nH]cnc2n(C)c1=O [theophylline] the “direct effect on HDAC activity at higher concentrations” value (HDAC activity [1]; 10^−4-10^−3 M) was “inhibited HDAC activity”, the “concentration of maximum increase in HDAC activity (direct)” value (HDAC activity [1]; nuclear extracts) was 10^−5 M and the “direct effect on HDAC activity” value (HDAC activity [1]; nuclear extracts, IBMX 500 μM, rolipram 10 μM, CGS-15943 10 μM) was “concentration-dependent increase”. For the same compound, the HDAC1 expression (HDAC1 [2]; 24 hours, theophylline 10^−4 M) was “induced”, the HDAC1 expression (HDAC1 [2]; 24 hrs) was “no effect” and the “IL-1β+H2O2-induced reduction in HDAC2 expression” value (HDAC2 [3]; 24 hrs) was “restored”. For the same compound, the HDAC2 expression (HDAC2 [3]; 24 hrs) was “no effect”, the HDAC2 expression (HDAC2 [3]; 24 hours) was “no effect” and the “HDAC1 expression relative to β-actin” value (HDAC1 [4]) was 0.44±0.06. The “HDAC2 expression relative to β-actin” value (HDAC2 [5]) was 0.49±0.20, the “total HDAC activity in biopsies” value (HDAC activity [6]) was 111±15 dpm/mg protein and the “HDAC activity at 10^−4 M” value [7] was “decreased to control levels”. For the same compound, the “concentration of maximal increase in HDAC activity” value [7] was 10^−5 M, the HDAC activity ([7]; rolipram 10 μM) was “concentration-dependent increase” and the “LPS-induced IL-8 release” value [8] was “no effect”. For the same compound, the HDAC1 activity (HDAC1 [9]) was “significant induction”, the HDAC2 activity (HDAC2 [10]) was “without having any effect” and the HDAC3 activity (HDAC3) was “significant induction”. For the same compound, the “basal HAT activity” value [11] was “Neither theophylline nor dexamethasone had any effect”, the “LPS-induced whole cell HAT activity” value ([11]; LPS 3 ng/ml, 24 hrs) was “significant concentration-dependent inhibitory effect” and the “LPS-induced GM-CSF release” value ([12]; LPS 3 ng/ml) was “not associated with a significant reduction”. For the same compound, the “GM-CSF release after IL-1β plus H2O2, each alone” value [12, 16] was “neither theophylline (10^−5 M) nor dexamethasone (10^−10 M) alone had any effect”, the “IL-1β-stimulated GM-CSF release, each alone” value [12, 16] was “failed to inhibited” and the “decrease in IL-1β-stimulated GM-CSF release” value ([12]; theophylline 10^−5 M, dexamethasone 10^−10 M, alone or combined) was 20%. The “HDAC activity, macrophages from non-smokers” value [13] was “significantly enhanced”, the “total cell HDAC activity after IL-1β plus H2O2” value ([14]; 4 hrs, theophylline pre-treatment 10^−5 M, 10 min) was “significantly increased” and the “total cell HDAC activity in LPS-stimulated cells” value ([14]; pretreatment 60 min, up to 10^−5 M, measured at 24 hrs) was “significantly increased”. For the same compound, the BAL eosinophils [15] was 1.7±0.28%, the FEV1 [15] was 3.4±0.09 and the “FEV1 (% predicted)” value [15] was 92.8 ± 2.6%. It also gave a Muscosal eosinophils [15] of 1.19 ± 0.43, an NO [15] of 23.2 ± 3.8 and a PC20 methacholine [15] of 1.2±0.35. The PEF am [15] was 469±19, the mucosal eosinophils [15] was 1.19±0.43 eosinophils/high powered field and the BAL eosinophils ([15]; listed as Theophylline) was 1.7 ± 0.28%. It also gave an FEV1 ([15]; listed as Theophylline) of 3.42 ± 0.09, a PC20 methacholine ([15]; listed as Theophylline) of 1.2 ± 0.35 and a PEF am ([15]; listed as Theophylline) of 469 ± 19.
